One series concerns HBE4 cells. As to the kind of experiment: Quantitative cell migration assay. The series is classed as cell-based, human. As to conditions: HBE4, vs Scr control. The text has this:
(§1) For cell migration, we used two complementary assays. […] To compensate potential differences in the cell numbers among different treatment conditions, we seeded 10% less cells for Ant-163 treated HBE4 cells and 10% more cells for piR-L-163 transfected H1792 cells.
(§2) Two complimentary methods were used. For quantitative fluorescent dye assay, Innocyto™ Cell migration Assay kit (EMD Millipore) was used. Briefly, 24 hrs after treatment, 1×10^5 cells (10% less for Ant-163 treated cells or 10% more for piR-L-163 treated cells) were loaded to the upper chamber with growth factor-free Keratinocyte-SFM for (HBE4 cells) or serum-free DMEM (for H1792 cells) with the bottom chamber exposed to completed culture medium. Negative controls were used with 3 μM Latrunculin A. After 12 hrs incubation, fluorescence was measured using a fluorescence plate reader 485 nm (excitation) and 520 nm (emission) according to the manufacturer's instruction. For wound-healing assay, cells (24 hrs after treatment with different DNA or RNA oligonucleotides) were grown to confluence followed by scratching with a pipette tip to create a gap. The floating cells were removed and the gaps were monitored/photographed every 12 hrs.

For another series, the system named is p-ERM. The series is described as follows: p-ERM protein levels in HBE4 cells (Western blot). The class given is cell-based, human. As to conditions: following treatment. In general terms: A western blot detects proteins with antibodies after separation by electrophoresis.
The subject of series [1] is HBE4 cells as well as primary normal human bronchial epithelial (NHBE) cells. As to the kind of experiment: Cell viability and cell growth curve assay (MTT, trypan blue). The class given is cell-based. As to conditions: compared with cells treated with scrambled DNA oligonucleotides (Scr). On the procedure: We then wanted to determine whether piR-L-163 (SEQ ID NO:282) plays a functional role in human bronchial epithelial cells. We treated HBE4 cells as well as primary normal human bronchial epithelial (NHBE) cells with piR-L-163 complementary DNA oligonucleotides (Ant-163) (SEQ ID NO:496) or RNA oligonucleotides (Ant-163R) (SEQ ID NO:497) in the experiment. […] Cell cycle distributions were measured every 2 hrs. […]
Cell viability and cell growth curve assay were determined by MTT assay and trypan blue exclusion assay, respectively as described previously (Kirino, Y. & Mourelatos, Z. Mouse Piwi-interacting RNAs are 2′-O-methylated at their 3′ termini Nat Struct Mol Biol. 14, 347-348 (2007)). BrieflySpecifically, MTT (5 mg/ml) was added into cells and incubated at culture condition for 3 hours, removed the medium carefully and dissolved formazan in DMSO, assay was used to assess the surviving cells and OD values were measured using Microplate Reader Manager (Bio Rad) at wavelengths of 570/690 nm. […] Unstained viable cells were counted in hemocytometer chamber under microscope. […]

The test system of the next series is H1792 cells. As to the kind of experiment: Quantitative cell migration assay. The class given is cell-based, human. As to conditions: H1792, vs Scr or Ant-163.
Description: as §1, §2

Another series relates to ERM proteins. The series is described as follows: Pull down with biotin-conjugated piR-L-163 from HBE4 cell lysates, LC-MS-MS. The note with it: vs Scr control RNA. The class given is binding, human. The text has this: Because of the unexpected cellular localizations of piR-L-163 during cell cycle progression, we suspected that piR-L-163 plays a biological role through interaction with proteins. To identify potential piR-L-163 interacting proteins, biotin-conjugated piR-L-163 RNA oligonucleotides were used as a bait to pull down cellular binding proteins in HBE4 cells.
For IP using piR-L-163, synthesized biotin labeled RNA oligonucleotides (/5′Biosg/[…]-3′) (SEQ ID NO:502) was used and scrambled RNA (/5′Biosg/[…]-3′) (SEQ ID NO:503) used as a control.
Protein extracts from 1×10^7 cells using HKMG lysis buffer (10 mM HEPES pH 7.9, 100 mM KCL, 5 mM MgCl2, 10% glycerol, 1 mM dithiothreitol, 0.1% NP40) with protease and phosphatase inhibitors (Roche) were incubated with 1 μg biotin-labeled RNA for 16 hr at 4° C. with rotation after pre-clearing with streptavidin beads, then coupled to 10 μl 50% of streptavidin agarose beads (Sigma-Aldrich). After incubation, the biotin-labeled oligonucleotide-coupled streptavidin beads were washed four times with HKMG lysis buffer. Samples were denatured in SDS protein loading buffer before running on a SDS-acrylamide gel.
The target band for mass spectrometry was performed. […]
The processed samples were analyzed using a nanoscale reverse-phase liquid chromatography using an Xtreme Simple nanoLC system (CVC/Q24 MicroTech). […]

In another series the test system is F-actin and EBP50. As to the kind of experiment: Binding of p-ERM/moesin with F-actin and EBP50 in IP products of H522 cells. The series is classed as cell-based, human. The note with it: together with Moesin-WT.

On to “Ant-163: DNA sequence antisense to piR-L-163, SEQ ID NO:496, 5′-GGTCAGAGAATCAAAGTAACATCATGATAT-3′ (DNA, backbone and methylation of C not given here)”, for which, in the series with HBE4 cells, the cell migration entry is listed as “significantly increased cell migration”. Besides, in the series on p-ERM, the p-ERM protein levels result is “not significantly changed”. Besides, the “cell viability and proliferation” value in series [1] was “enhanced cell viability and proliferation”.
As for “piR-L-163: sprRNA, SEQ ID NO:282; piRNA-L aligned to intron 10 of LAMC2; AUAUCAUGAUGUUACUUUGAUUCUCUGACC with 3′ 2′-O-methylation (listed as RNA, chemistry not fully specified; listed as Homo sapiens)”, the cell migration result in the series on H1792 cells is “significantly decreased cell migration”. For the same substance, the “binding to ERM proteins (pull down)” value in the series with ERM proteins is reported as “binds to ERM proteins”. In addition, in the series with F-actin and EBP50, the “binding of moesin with F-actin and EBP50” value was “enhanced binding with F-actin and EBP50”.

The record behind these values is US10889812B2, “Short non-coding protein regulatory RNAs (sprRNAs) and methods of use” (University of Maryland, Baltimore, priority 2014, dated 2021).
